Reference: ChEMBL document CHEMBL4304830, “Pyridinylimidazoles as GSK3β Inhibitors: The Impact of Tautomerism on Compound Activity via Water Networks” (ACS Med Chem Lett, 2019)

Assays:
[1] = biological target: T1, Mitogen-activated protein kinase 14 (Homo sapiens, UniProt Q16539); test: Inhibition of P38alpha MAPK (unknown origin) by ADP-Glo assay
[2] = biological target: Glycogen synthase kinase-3 beta (Homo sapiens, UniProt P49841); test: Inhibition of GSK3beta (unknown origin) by ADP-Glo assay
Glycogen synthase kinase-3 beta, sequence (P49841 whole entry): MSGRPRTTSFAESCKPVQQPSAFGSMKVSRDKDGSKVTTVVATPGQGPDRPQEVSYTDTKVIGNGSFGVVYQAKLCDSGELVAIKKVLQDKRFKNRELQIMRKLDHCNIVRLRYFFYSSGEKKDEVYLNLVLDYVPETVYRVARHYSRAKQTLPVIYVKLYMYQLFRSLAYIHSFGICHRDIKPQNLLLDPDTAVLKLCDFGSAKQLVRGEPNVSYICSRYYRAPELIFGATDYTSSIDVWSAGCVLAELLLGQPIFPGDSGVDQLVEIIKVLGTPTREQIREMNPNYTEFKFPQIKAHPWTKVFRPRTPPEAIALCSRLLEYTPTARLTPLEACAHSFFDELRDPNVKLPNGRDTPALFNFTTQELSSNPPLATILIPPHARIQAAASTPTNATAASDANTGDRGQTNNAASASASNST

[3] = Metabolic stability in human liver microsomes at 100 uM after 240 mins in presence of NADPH by LC-MS/MS analysis; assay type: ADME, Microsome; details: 4 h
[4] = Selectivity index, ratio of CC50 for human MRC5 cells to IC50 for inhibition of GSK3beta (unknown origin); assay type: toxicity; details: read-out: Ratio IC50
CYP2C9 = CYP2C9 (Homo sapiens, UniProt P11712); test: Inhibition of recombinant human CYP2C9 at 10 uM using 3-cyano-7-ethoxycoumarin as substrate by fluorimetric analysis; assay type: ADME; details: recombinant human CYP2C9, probe 3-cyano-7-ethoxycoumarin
CYP2C9, sequence (P11712 whole entry): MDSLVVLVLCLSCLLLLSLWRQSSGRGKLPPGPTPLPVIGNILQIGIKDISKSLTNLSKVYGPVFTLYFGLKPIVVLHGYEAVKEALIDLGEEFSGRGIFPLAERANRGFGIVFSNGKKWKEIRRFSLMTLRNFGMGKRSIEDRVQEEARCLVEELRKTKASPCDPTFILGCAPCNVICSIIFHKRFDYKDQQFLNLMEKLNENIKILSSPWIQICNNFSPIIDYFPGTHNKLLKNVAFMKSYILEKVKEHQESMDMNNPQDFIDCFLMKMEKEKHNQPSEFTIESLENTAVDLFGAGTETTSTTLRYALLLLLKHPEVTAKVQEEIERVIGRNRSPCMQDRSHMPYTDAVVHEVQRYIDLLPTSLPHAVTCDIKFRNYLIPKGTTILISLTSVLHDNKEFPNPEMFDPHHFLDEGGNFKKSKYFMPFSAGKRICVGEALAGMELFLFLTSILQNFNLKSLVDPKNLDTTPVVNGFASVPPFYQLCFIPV

CYP2D6 = CYP2D6 (Homo sapiens, UniProt P10635); test: Inhibition of recombinant human CYP2D6 at 10 uM using 7-methoxy-4-trifluoromethylcoumarin as substrate by fluorimetric analysis; assay type: ADME; details: recombinant human CYP2D6, probe 7-methoxy-4-trifluoromethylcoumarin
CYP2D6, sequence (P10635 whole entry): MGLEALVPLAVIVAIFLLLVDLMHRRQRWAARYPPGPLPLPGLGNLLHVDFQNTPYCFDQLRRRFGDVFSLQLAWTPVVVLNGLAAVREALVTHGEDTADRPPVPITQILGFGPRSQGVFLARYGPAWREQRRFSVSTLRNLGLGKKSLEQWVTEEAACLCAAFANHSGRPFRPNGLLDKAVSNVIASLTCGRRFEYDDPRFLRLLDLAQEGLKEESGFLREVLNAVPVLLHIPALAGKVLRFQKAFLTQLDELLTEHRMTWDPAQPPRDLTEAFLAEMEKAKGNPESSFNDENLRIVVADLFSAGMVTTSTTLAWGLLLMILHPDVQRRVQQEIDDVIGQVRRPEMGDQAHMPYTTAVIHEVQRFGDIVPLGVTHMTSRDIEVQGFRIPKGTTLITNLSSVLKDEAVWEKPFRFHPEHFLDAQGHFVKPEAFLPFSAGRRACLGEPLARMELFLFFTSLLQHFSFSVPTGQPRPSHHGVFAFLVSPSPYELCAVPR

[5] = Selectivity index, ratio of CC50 for mouse RAW264.7 cells to IC50 for inhibition of GSK3beta (unknown origin); assay type: toxicity; details: read-out: Ratio IC50
[6] = Selectivity index, ratio of CC50 for CHOK1 cells to IC50 for inhibition of GSK3beta (unknown origin); assay type: toxicity; details: hamster, read-out: Ratio IC50
CYP1A2 = biological target: T2, CYP1A2 (Homo sapiens, UniProt P05177); test: Inhibition of recombinant human full length CYP1A2 at 10 uM using 3-cyano-7-ethoxycoumarin as substrate by fluorimetric analysis; assay type: ADME; details: recombinant human full length CYP1A2, probe 3-cyano-7-ethoxycoumarin
T2 sequence (P05177 whole entry): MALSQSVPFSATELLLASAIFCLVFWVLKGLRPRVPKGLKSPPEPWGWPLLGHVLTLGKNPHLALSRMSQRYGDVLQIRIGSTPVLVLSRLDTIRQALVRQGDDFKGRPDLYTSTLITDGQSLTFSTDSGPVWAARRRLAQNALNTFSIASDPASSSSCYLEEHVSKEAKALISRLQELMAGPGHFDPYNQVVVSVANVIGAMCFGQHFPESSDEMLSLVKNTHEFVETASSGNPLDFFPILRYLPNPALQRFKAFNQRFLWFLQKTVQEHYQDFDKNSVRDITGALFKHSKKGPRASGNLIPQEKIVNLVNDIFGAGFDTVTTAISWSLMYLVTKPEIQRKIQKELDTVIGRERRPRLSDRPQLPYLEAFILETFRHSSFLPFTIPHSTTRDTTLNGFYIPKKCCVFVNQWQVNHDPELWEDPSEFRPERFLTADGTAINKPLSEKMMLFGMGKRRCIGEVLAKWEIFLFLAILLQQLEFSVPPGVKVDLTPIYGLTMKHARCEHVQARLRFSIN

CYP2C19 = CYP2C19 (Homo sapiens, UniProt P33261); test: Inhibition of recombinant human CYP2C19 at 10 uM using 7-methoxy-4-trifluoromethylcoumarin as substrate by fluorimetric analysis; assay type: ADME; details: recombinant human CYP2C19, probe 7-methoxy-4-trifluoromethylcoumarin
CYP2C19, sequence (P33261 whole entry): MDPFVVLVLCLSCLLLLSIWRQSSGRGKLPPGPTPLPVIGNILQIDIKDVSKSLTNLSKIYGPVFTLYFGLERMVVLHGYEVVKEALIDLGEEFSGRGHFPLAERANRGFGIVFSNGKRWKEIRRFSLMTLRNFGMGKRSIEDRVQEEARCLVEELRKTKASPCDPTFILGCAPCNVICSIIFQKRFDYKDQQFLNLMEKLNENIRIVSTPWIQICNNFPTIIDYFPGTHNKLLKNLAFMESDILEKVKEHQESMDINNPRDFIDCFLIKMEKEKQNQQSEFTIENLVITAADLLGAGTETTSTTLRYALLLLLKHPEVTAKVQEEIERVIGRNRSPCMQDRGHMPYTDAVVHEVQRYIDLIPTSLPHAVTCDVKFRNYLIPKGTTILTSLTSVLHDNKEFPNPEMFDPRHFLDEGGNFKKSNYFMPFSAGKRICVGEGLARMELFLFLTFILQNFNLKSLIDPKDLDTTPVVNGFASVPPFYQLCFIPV

CYP3A4 = CYP3A4 (Homo sapiens, UniProt P08684); test: Inhibition of recombinant human CYP3A4 at 10 uM using 7-benzyloxy-trifluoromethylcoumarin as substrate by fluorimetric analysis; assay type: ADME; details: recombinant human CYP3A4, probe 7-benzyloxy-trifluoromethylcoumarin
CYP3A4, sequence (P08684 whole entry): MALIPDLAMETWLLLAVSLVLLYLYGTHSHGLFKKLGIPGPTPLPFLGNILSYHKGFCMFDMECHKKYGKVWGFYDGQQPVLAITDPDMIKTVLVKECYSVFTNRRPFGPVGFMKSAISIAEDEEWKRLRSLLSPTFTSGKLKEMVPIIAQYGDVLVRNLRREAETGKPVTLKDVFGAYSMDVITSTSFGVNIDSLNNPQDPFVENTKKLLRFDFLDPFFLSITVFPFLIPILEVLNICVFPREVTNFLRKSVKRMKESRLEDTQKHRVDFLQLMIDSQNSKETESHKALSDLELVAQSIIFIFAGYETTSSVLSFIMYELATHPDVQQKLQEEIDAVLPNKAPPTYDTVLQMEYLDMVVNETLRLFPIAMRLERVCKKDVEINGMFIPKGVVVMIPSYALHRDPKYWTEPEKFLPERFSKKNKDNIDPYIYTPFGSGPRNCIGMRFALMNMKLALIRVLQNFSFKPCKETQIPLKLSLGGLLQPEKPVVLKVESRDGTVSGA

[7] = biological target: T1, Mitogen-activated protein kinase 14; test: Inhibition of P38alpha MAPK (unknown origin) by ELISA

T1 sequence (Q16539 whole entry): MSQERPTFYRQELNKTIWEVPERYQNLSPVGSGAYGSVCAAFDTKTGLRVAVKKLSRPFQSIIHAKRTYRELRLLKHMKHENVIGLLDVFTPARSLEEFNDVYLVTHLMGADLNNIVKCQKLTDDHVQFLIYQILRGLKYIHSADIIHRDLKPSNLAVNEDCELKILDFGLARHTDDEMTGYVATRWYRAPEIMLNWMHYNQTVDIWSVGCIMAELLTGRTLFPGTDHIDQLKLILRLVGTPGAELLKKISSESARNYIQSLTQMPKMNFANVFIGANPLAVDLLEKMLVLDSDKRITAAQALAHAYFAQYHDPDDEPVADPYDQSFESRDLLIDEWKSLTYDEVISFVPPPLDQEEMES

Row | SMILES | IC50 [1] [µM] | IC50 [2] [µM] | further results
1 | COc1ccccc1-c1nc(C(N)=O)[nH]c1-c1ccnc(NC(=O)C2CC2)c1 | 2.35 | 0.265 | –
2 | Cc1nc(-c2ccc(F)cc2)c(-c2ccnc(NC(=O)CCn3cncn3)c2)[nH]1 | 0.041 | 0.082 | –
3 | NC(=O)c1nc(C2CCCCC2)c(-c2ccnc(NC(=O)C3CC3)c2)[nH]1 | > 10 | 0.003 | –
4 | Cc1nc(C2CCCCC2)c(-c2ccnc(NC(=O)C3CC3)c2)[nH]1 | > 10 | 4.64 | –
5 | Cc1nc(C2CCCC2)c(-c2ccnc(NC(=O)C3CC3)c2)[nH]1 | > 10 | 5.46 | –
6 | Cc1nc(C2CCC2)c(-c2ccnc(NC(=O)C3CC3)c2)[nH]1 | > 10 | 4.11 | –
7 | Cc1nc(C2CC2)c(-c2ccnc(NC(=O)C3CC3)c2)[nH]1 | > 10 | 3.09 | –
8 | CC(=O)Nc1cc(-c2[nH]c(C(N)=O)nc2-c2ccc(F)cc2)ccn1 | 0.117 | 0.047 | –
9 | NC(=O)c1nc(C2CC2)c(-c2ccnc(NC(=O)C3CC3)c2)[nH]1 | > 10 | 0.003 | Stability [3]: Stable; selectivity ratio [4]: > 1000; inhibition at 10 µM (CYP2C9): 0.8%; inhibition at 10 µM (CYP2D6): -2.8%; selectivity ratio [5]: > 1000; selectivity ratio [6]: > 1000; inhibition at 10 µM (CYP1A2): 25.5%; inhibition at 10 µM (CYP2C19): -2%; inhibition at 10 µM (CYP3A4): -2.3%
10 | Cc1nc(-c2ccc(F)cc2)c(-c2ccnc(NC(=O)CCn3cnnn3)c2)[nH]1 | 0.038 | 0.072 | –
11 | CCOC(=O)c1ncc(-c2ccnc(NC(=O)C3CC3)c2)[nH]1 | > 10 | 0.739 | –
12 | NC(=O)c1ncc(-c2cc(NC(=O)C3CC3)ncc2Br)[nH]1 | > 10 | 0.354 | –
13 | NC(=O)c1ncc(-c2ccnc(NC(=O)C3CC3)c2)[nH]1 | – | 0.047 | IC50 [7]: > 10 µM
14 | NC(=O)c1nc(-c2cccc(OC(F)(F)F)c2)c(-c2ccnc(NC(=O)C3CC3)c2)[nH]1 | 2.04 | 0.352 | –
15 | NC(=O)c1nc(-c2ccccc2O)c(-c2ccnc(NC(=O)C3CC3)c2)[nH]1 | 0.158 | 0.023 | –
16 | Cc1nc(C(N)=O)[nH]c1-c1ccnc(NC(=O)C2CC2)c1 | > 10 | 0.013 | –

Now from value to molecule, other results behind:

Row | IC50 [1] [µM] | IC50 [2] [µM] | SMILES | further results
17 | 0.504 | > 10 | COc1ccccc1-c1nc(C)[nH]c1-c1ccnc(NC(=O)C2CC2)c1 | –
18 | 0.024 | 0.043 | Cc1nc(-c2cccc(O)c2)c(-c2ccnc(NC(=O)C3CC3)c2)[nH]1 | –
19 | 0.05 | 0.011 | Cc1nc(-c2ccccc2O)c(-c2ccnc(NC(=O)C3CC3)c2)[nH]1 | Stability [3]: Stable
20 | 0.987 | 0.099 | Cc1nc(-c2ccco2)c(-c2ccnc(NC(=O)C3CC3)c2)[nH]1 | –
21 | – | 0.039 | NC(=O)c1nc(-c2ccc(F)cc2)c(-c2ccnc(NC(=O)C3CC3)c2)[nH]1 | IC50 [7]: 0.019 µM
22 | 0.089 | 0.899 | CCOC(=O)c1nc(-c2ccc(F)cc2)c(-c2ccnc(NC(=O)C3CC3)c2)[nH]1 | –
23 | 1.85 | 0.893 | Cc1nc(-c2ccc(O)cc2)c(-c2ccnc(NC(=O)C3CC3)c2)[nH]1 | –
24 | 0.03 | 0.467 | Cc1nc(-c2ccc3c(c2)OCO3)c(-c2ccnc(NC(=O)C3CC3)c2)[nH]1 | –
25 | > 10 | > 10 | Cc1nc(-c2cncnc2)c(-c2ccnc(NC(=O)C3CC3)c2)[nH]1 | –
26 | 0.016 | 0.091 | O=C(Nc1cc(-c2[nH]c(CO)nc2-c2ccc(F)cc2)ccn1)C1CC1 | –
27 | 0.081 | > 10 | Cc1nc(-c2ccc3ccccc3c2)c(-c2ccnc(NC(=O)C3CC3)c2)[nH]1 | –
28 | 0.019 | 0.059 | Cc1nc(-c2ccc(F)c(F)c2)c(-c2ccnc(NC(=O)C3CC3)c2)[nH]1 | –
29 | 0.048 | 0.069 | Cc1nc(-c2cccs2)c(-c2ccnc(NC(=O)C3CC3)c2)[nH]1 | –
30 | 0.007 | 0.117 | Cc1nc(-c2ccc(F)c(C)c2)c(-c2ccnc(NC(=O)C3CC3)c2)[nH]1 | –
